Test: Effects of oral water administration on ITE dosed mice
Format: in vivo
Set-up: key to feces appearance: Moderate; Dry
Settings: for feces appearance (visual): after one week of dosing
Procedure: Oral injection of water was initiated at the same day i.p. administration of ITE was started. Daily oral gavage at 10 or 20 ml/kg was performed immediately following daily i.p. injection of ITE or DMSO continuously for the entire duration of the study. Both oral and i.p. injection were accidentally skipped at day 14 due to a mistake of the experimenter(s) and all of the other dosing were executed normally. Bodyweights (individual), food consumed (in group), feces weights (in group), and feces appearance (in group) were recorded every two days. Death of animal(s) and approximate cause of death etc. were also recorded.

[1] = ITE-H 300 mg/kg i.p. + Water-0, day 4
[2] = ITE-H 300 mg/kg i.p. + Water-0, day 6
[3] = ITE-H 300 mg/kg i.p. + Water-0, day 8
[4] = ITE-H 300 mg/kg i.p. + Water-0, day 10
[5] = ITE-H 300 mg/kg i.p. + Water-0, day 12
[6] = ITE-H 300 mg/kg i.p. + Water-0, day 14
[7] = ITE-H 300 mg/kg i.p. + Water-0, day 18 (line r16)
[8] = ITE-H 300 mg/kg i.p. + Water-0, day 18 (line r17)
[9] = ITE-H 300 mg/kg i.p. + Water-0, day 20
[10] = ITE-H 300 mg/kg i.p. + Water-0, day 22
[11] = ITE-H 300 mg/kg i.p. + Water-0, day 24
[12] = ITE-H 300 mg/kg i.p. + Water-0, day 26
[13] = ITE-H 300 mg/kg i.p. + Water-0, day 28
[14] = ITE-H 300 mg/kg i.p. + Water-0, day 30
[15] = ITE-H 300 mg/kg i.p. + Water-0, day 32
[16] = ITE-H 300 mg/kg i.p. + Water-0, day 34
[17] = ITE-H 300 mg/kg i.p. + Water-0, day 36
[18] = ITE-H 300 mg/kg i.p. + Water-H 20 ml/kg, day 4
[19] = ITE-H 300 mg/kg i.p. + Water-H 20 ml/kg, day 6
[20] = ITE-H 300 mg/kg i.p. + Water-H 20 ml/kg, day 8
[21] = ITE-H 300 mg/kg i.p. + Water-H 20 ml/kg, day 10
[22] = ITE-H 300 mg/kg i.p. + Water-H 20 ml/kg, day 12
[23] = ITE-H 300 mg/kg i.p. + Water-H 20 ml/kg, day 14
[24] = ITE-H 300 mg/kg i.p. + Water-H 20 ml/kg, day 18 (line r16)
[25] = ITE-H 300 mg/kg i.p. + Water-H 20 ml/kg, day 18 (line r17)
[26] = ITE-H 300 mg/kg i.p. + Water-H 20 ml/kg, day 20
[27] = ITE-H 300 mg/kg i.p. + Water-H 20 ml/kg, day 22
[28] = ITE-H 300 mg/kg i.p. + Water-H 20 ml/kg, day 24
[29] = ITE-H 300 mg/kg i.p. + Water-H 20 ml/kg, day 26
[30] = ITE-H 300 mg/kg i.p. + Water-H 20 ml/kg, day 28
[31] = ITE-H 300 mg/kg i.p. + Water-H 20 ml/kg, day 30
[32] = ITE-H 300 mg/kg i.p. + Water-H 20 ml/kg, day 32
[33] = ITE-H 300 mg/kg i.p. + Water-H 20 ml/kg, day 34
[34] = ITE-H 300 mg/kg i.p. + Water-L 10 ml/kg, day 4
[35] = ITE-H 300 mg/kg i.p. + Water-L 10 ml/kg, day 6
[36] = ITE-H 300 mg/kg i.p. + Water-L 10 ml/kg, day 8
[37] = ITE-H 300 mg/kg i.p. + Water-L 10 ml/kg, day 10
[38] = ITE-H 300 mg/kg i.p. + Water-L 10 ml/kg, day 12
[39] = ITE-H 300 mg/kg i.p. + Water-L 10 ml/kg, day 14
[40] = ITE-H 300 mg/kg i.p. + Water-L 10 ml/kg, day 18 (line r16)
[41] = ITE-H 300 mg/kg i.p. + Water-L 10 ml/kg, day 18 (line r17)
[42] = ITE-H 300 mg/kg i.p. + Water-L 10 ml/kg, day 20
[43] = ITE-H 300 mg/kg i.p. + Water-L 10 ml/kg, day 22
[44] = ITE-H 300 mg/kg i.p. + Water-L 10 ml/kg, day 24
[45] = ITE-H 300 mg/kg i.p. + Water-L 10 ml/kg, day 26
[46] = ITE-H 300 mg/kg i.p. + Water-L 10 ml/kg, day 28
[47] = ITE-H 300 mg/kg i.p. + Water-L 10 ml/kg, day 30
[48] = ITE-H 300 mg/kg i.p. + Water-L 10 ml/kg, day 32
[49] = ITE-H 300 mg/kg i.p. + Water-L 10 ml/kg, day 34

With `COC(=O)c1csc(C(=O)c2c[nH]c3ccccc23)n1` [ITE, 2-(1′H-indole-3′-carbonyl)-thiazole-4-carboxylic acid methyl ester] the “feces appearance (visual)” value (ITE high (300 mg/kg)) was “dry”, the “day at which one mouse died” value (ITE high dose (300 mg/kg) without oral water administration) was 36 days and the “feces appearance (visual)” value (ITE low (200 mg/kg)) was “dry”. The “day at which one mouse died” value (ITE low dose (200 mg/kg) without oral water administration) was 28 days, the feces appearance [1] was “M” and the “number of mice that died” value [1] was 0. For the same molecule, the feces appearance [2] was “M”, the “number of mice that died” value [2] was 0 and the feces appearance [3] was “D”. For the same molecule, the “number of mice that died” value [3] was 0, the feces appearance [4] was “D” and the “number of mice that died” value [4] was 0. The feces appearance [5] was “D”, the “number of mice that died” value [5] was 0 and the feces appearance [6] was “D”. The “number of mice that died” value [6] was 0, the feces appearance [7] was “D” and the “number of mice that died” value [7] was 0. For the same molecule, the feces appearance [8] was “D”, the “number of mice that died” value [8] was 0 and the feces appearance [9] was “D”. The “number of mice that died” value [9] was 0, the feces appearance [10] was “D” and the “number of mice that died” value [10] was 0. For the same molecule, the feces appearance [11] was “D”, the “number of mice that died” value [11] was 0 and the feces appearance [12] was “D”. For the same molecule, the “number of mice that died” value [12] was 0, the feces appearance [13] was “D” and the “number of mice that died” value [13] was 0. The feces appearance [14] was “D”, the “number of mice that died” value [14] was 0 and the feces appearance [15] was “D”. The “number of mice that died” value [15] was 0, the feces appearance [16] was “D” and the “number of mice that died” value [16] was 0. The feces appearance [17] was “D”, the “number of mice that died” value [17] was 1 and the feces appearance [18] was “M”. The “number of mice that died” value [18] was 0, the feces appearance [19] was “M” and the “number of mice that died” value [19] was 0. For the same molecule, the feces appearance [20] was “D”, the “number of mice that died” value [20] was 0 and the feces appearance [21] was “D”. For the same molecule, the “number of mice that died” value [21] was 0, the feces appearance [22] was “D” and the “number of mice that died” value [22] was 0. For the same molecule, the feces appearance [23] was “D”, the “number of mice that died” value [23] was 0 and the feces appearance [24] was “D”. For the same molecule, the “number of mice that died” value [24] was 0, the feces appearance [25] was “D” and the “number of mice that died” value [25] was 0. For the same molecule, the feces appearance [26] was “D”, the “number of mice that died” value [26] was 0 and the feces appearance [27] was “D”. The “number of mice that died” value [27] was 0, the feces appearance [28] was “D” and the “number of mice that died” value [28] was 0. The feces appearance [29] was “D”, the “number of mice that died” value [29] was 0 and the feces appearance [30] was “M”. The “number of mice that died” value [30] was 0, the feces appearance [31] was “M” and the “number of mice that died” value [31] was 0. The feces appearance [32] was “M”, the “number of mice that died” value [32] was 0 and the feces appearance [33] was “M”. The “number of mice that died” value [33] was 0, the feces appearance [34] was “M” and the “number of mice that died” value [34] was 0. The feces appearance [35] was “M”, the “number of mice that died” value [35] was 0 and the feces appearance [36] was “D”. For the same molecule, the “number of mice that died” value [36] was 0, the feces appearance [37] was “D” and the “number of mice that died” value [37] was 0. The feces appearance [38] was “D”, the “number of mice that died” value [38] was 0 and the feces appearance [39] was “D”. For the same molecule, the “number of mice that died” value [39] was 0, the feces appearance [40] was “D” and the “number of mice that died” value [40] was 0. The feces appearance [41] was “D”, the “number of mice that died” value [41] was 0 and the feces appearance [42] was “D”. For the same molecule, the “number of mice that died” value [42] was 0, the feces appearance [43] was “D” and the “number of mice that died” value [43] was 0. For the same molecule, the feces appearance [44] was “D”, the “number of mice that died” value [44] was 0 and the feces appearance [45] was “D”. The “number of mice that died” value [45] was 0, the feces appearance [46] was “M” and the “number of mice that died” value [46] was 0. For the same molecule, the feces appearance [47] was “M”, the “number of mice that died” value [47] was 0 and the feces appearance [48] was “M”. The “number of mice that died” value [48] was 0, the feces appearance [49] was “M” and the “number of mice that died” value [49] was 0.

From patent publication US10632106B2, “Methods of cancer treatment with 2-(1′H-Indole-3′-carbonyl)-thiazole-4-carboxylic acid methyl ester” (Ariagen, Inc., priority 2009, dated 2020)
